Test system: MDA-MB-231 multicell spheroids, viability
Test: Anticancer human tumor MDA-MB-231 cell line growth inhibition [PI3K];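 also: spheroids exposed to agents for seven days before reading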;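 as to viability, T/C: percent of vehicle control luminescence with DMSO treated spheroids as 100%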
Conditions: for IC50: curve of first compound; for viability, T/C: stronger effect = lower value
Method in brief: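 Viability of mixed-cell spheroids was determined after exposure to pairwise combinations, one partner being inavolisib, alpelisib, duvelisib or copanlisib. Highest tested concentration matched clinical Cmax where known and 10 microM where not, descending in half-log steps.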

CC(=O)c1c(C)c2cnc(Nc3ccc(N4CCNCC4)cn3)nc2n(C2CCCC2)c1=O + Cc1nc(NC(=O)N2CCCC2C(N)=O)sc1-c1ccnc(C(C)(C)C(F)(F)F)c1
IC50 (second compound 0.0316 µM): 69.7 nM
IC50 (second compound 0.1 µM): 52 nM
IC50 (second compound 0.316 µM): 27.3 nM
IC50 (second compound 1 µM): 22 nM
IC50 (second compound 3.16 µM): 19 nM
IC50 (second compound 10 µM): 15 nM
viability, T/C (second compound 0.0316 µM, first compound 0.000316 µM): 98.2%
viability, T/C (second compound 0.0316 µM, first compound 0.001 µM): 87.3%
viability, T/C (second compound 0.0316 µM, first compound 0.00316 µM): 92.4%
viability, T/C (second compound 0.0316 µM, first compound 0.01 µM): 82.7%
viability, T/C (second compound 0.0316 µM, first compound 0.0316 µM): 66.3%
viability, T/C (second compound 0.0316 µM, first compound 0.1 µM): 42.5%
viability, T/C (second compound 0.1 µM, first compound 0.000316 µM): 79.2%
viability, T/C (second compound 0.1 µM, first compound 0.001 µM): 85.5%
viability, T/C (second compound 0.1 µM, first compound 0.00316 µM): 81.4%
viability, T/C (second compound 0.1 µM, first compound 0.01 µM): 73.4%
viability, T/C (second compound 0.1 µM, first compound 0.0316 µM): 59.7%
viability, T/C (second compound 0.1 µM, first compound 0.1 µM): 37.8%
viability, T/C (second compound 0.316 µM, first compound 0.000316 µM): 73.8%
viability, T/C (second compound 0.316 µM, first compound 0.001 µM): 72.8%
viability, T/C (second compound 0.316 µM, first compound 0.00316 µM): 71.8%
viability, T/C (second compound 0.316 µM, first compound 0.01 µM): 60.9%
viability, T/C (second compound 0.316 µM, first compound 0.0316 µM): 48.8%
viability, T/C (second compound 0.316 µM, first compound 0.1 µM): 34%
viability, T/C (second compound 1 µM, first compound 0.000316 µM): 70.5%
viability, T/C (second compound 1 µM, first compound 0.001 µM): 64.9%
viability, T/C (second compound 1 µM, first compound 0.00316 µM): 63%
viability, T/C (second compound 1 µM, first compound 0.01 µM): 59%
viability, T/C (second compound 1 µM, first compound 0.0316 µM): 46%
viability, T/C (second compound 1 µM, first compound 0.1 µM): 29.6%
viability, T/C (second compound 3.16 µM, first compound 0.000316 µM): 67.2%
viability, T/C (second compound 3.16 µM, first compound 0.001 µM): 66.6%
viability, T/C (second compound 3.16 µM, first compound 0.00316 µM): 61.1%
viability, T/C (second compound 3.16 µM, first compound 0.01 µM): 56.3%
viability, T/C (second compound 3.16 µM, first compound 0.0316 µM): 44.8%
viability, T/C (second compound 3.16 µM, first compound 0.1 µM): 33.2%
viability, T/C (second compound 10 µM, first compound 0.000316 µM): 64%
viability, T/C (second compound 10 µM, first compound 0.001 µM): 60.9%
viability, T/C (second compound 10 µM, first compound 0.00316 µM): 58.4%
viability, T/C (second compound 10 µM, first compound 0.01 µM): 52.4%
viability, T/C (second compound 10 µM, first compound 0.0316 µM): 45.1%
viability, T/C (second compound 10 µM, first compound 0.1 µM): 31%

— PubChem BioAssay AID1963958 (Molecular Pharmacology Branch, DTP, NCI, 2024)
